In publication PMC7093416, “Selective USP7 inhibition elicits cancer cell killing through a p53-dependent mechanism” (Scientific Reports, 2020):

Tested on: panel of 484 cancer cell lines
Experiment: PRISM cancer cell line profiling, 5 days
Format: cell-based
Set-up: AUC: unit not given beside the values
Procedure: Cancer cell line profiling was performed using the Broad’s PRISM platform. Cell treatment and data analysis were performed as described in Yu et al[42]. Raw Luminex signal was converted to AUC values for each cell line as described. The resulting AUC profile for each compound was modeled against DepMap using the limma package in R[71]. Because hotspot mutation analysis was performed against DepMap, TP53 annotations in Fig. 6c,d are directly from DepMap.

## CN1CCN(CCC(=O)Nc2ccc3c(=O)n(CC4(O)CCN(C(=O)[C@@H](CCCNC(=O)c5ccc6c(Cl)c7c(nc6c5)CCCC7)Cc5ccccc5)CC4)cnc3c2)CC1 [XL177A]
8MGBA_CENTRAL_NERVOUS_SYSTEM
  AUC: 1.174
22RV1_PROSTATE
  AUC: 0.9618
42MGBA_CENTRAL_NERVOUS_SYSTEM
  AUC: 1
253JBV_URINARY_TRACT
  AUC: 0.9502
253J_URINARY_TRACT
  AUC: 1.095
639V_URINARY_TRACT
  AUC: 0.832
647V_URINARY_TRACT
  AUC: 1.06
769P_KIDNEY
  AUC: 1.126
786O_KIDNEY
  AUC: 1.266
5637_URINARY_TRACT
  AUC: 1.038
8305C_THYROID
  AUC: 1.048
8505C_THYROID
  AUC: 0.9221
2313287_STOMACH
  AUC: 1.154
A101D_SKIN
  AUC: 1.013
A172_CENTRAL_NERVOUS_SYSTEM
  AUC: 0.8471
A204_SOFT_TISSUE
  AUC: 0.8422
A375_SKIN
  AUC: 1.23
A549_LUNG
  AUC: 0.8217
A673_BONE
  AUC: 1.349
A704_KIDNEY
  AUC: 1.109
A2058_SKIN
  AUC: 0.9507
A2780_OVARY
  AUC: 0.804
ABC1_LUNG
  AUC: 1.07
ACCMESO1_PLEURA
  AUC: 1.035
ACHN_KIDNEY
  AUC: 1.124
AGS_STOMACH
  AUC: 0.9408
AN3CA_ENDOMETRIUM
  AUC: 0.9198
ASPC1_PANCREAS
  AUC: 1.1544
BC3C_URINARY_TRACT
  AUC: 1.1182
BCPAP_THYROID
  AUC: 0.9965
BECKER_CENTRAL_NERVOUS_SYSTEM
  AUC: 0.8518
BEN_LUNG
  AUC: 1.124
BFTC905_URINARY_TRACT
  AUC: 0.8686
BFTC909_KIDNEY
  AUC: 0.9138
BHT101_THYROID
  AUC: 0.9801
BICR6_UPPER_AERODIGESTIVE_TRACT
  AUC: 0.8445
BICR16_UPPER_AERODIGESTIVE_TRACT
  AUC: 0.8236
BICR31_UPPER_AERODIGESTIVE_TRACT
  AUC: 0.8691
BICR56_UPPER_AERODIGESTIVE_TRACT
  AUC: 0.8298
BT474_BREAST
  AUC: 1.426
BT549_BREAST
  AUC: 0.9189
BXPC3_PANCREAS
  AUC: 1.188
CADOES1_BONE
  AUC: 1.097
CAKI1_KIDNEY
  AUC: 1.0035
CAL12T_LUNG
  AUC: 1.065
CAL27_UPPER_AERODIGESTIVE_TRACT
  AUC: 0.8579
CAL29_URINARY_TRACT
  AUC: 0.9717
CAL51_BREAST
  AUC: 0.9698
CAL54_KIDNEY
  AUC: 1.122
CAL62_THYROID
  AUC: 0.9897
CAL78_BONE
  AUC: 0.8669
CAL120_BREAST
  AUC: 0.8877
CALU1_LUNG
  AUC: 1.403
CALU6_LUNG
  AUC: 0.9933
CAMA1_BREAST
  AUC: 0.994
CAOV3_OVARY
  AUC: 1.046
CAPAN2_PANCREAS
  AUC: 1.09
CCFSTTG1_CENTRAL_NERVOUS_SYSTEM
  AUC: 0.9028
CFPAC1_PANCREAS
  AUC: 1.131
CHL1_SKIN
  AUC: 1.028
CJM_SKIN
  AUC: 0.9117
CL34_LARGE_INTESTINE
  AUC: 1.2091
COLO668_LUNG
  AUC: 0.9325
COLO679_SKIN
  AUC: 0.9271
COLO680N_OESOPHAGUS
  AUC: 0.903
COLO741_SKIN
  AUC: 1.181
COLO783_SKIN
  AUC: 0.896
COLO792_SKIN
  AUC: 1.217
COLO800_SKIN
  AUC: 0.9306
CORL23_LUNG
  AUC: 0.9099
CORL105_LUNG
  AUC: 0.9151
COV362_OVARY
  AUC: 0.9501
COV434_OVARY
  AUC: 0.6134
DANG_PANCREAS
  AUC: 1.103
DAOY_CENTRAL_NERVOUS_SYSTEM
  AUC: 0.9019
DBTRG05MG_CENTRAL_NERVOUS_SYSTEM
  AUC: 0.986
DETROIT562_UPPER_AERODIGESTIVE_TRACT
  AUC: 0.8984
DKMG_CENTRAL_NERVOUS_SYSTEM
  AUC: 1.055
DMS273_LUNG
  AUC: 0.9756
DU145_PROSTATE
  AUC: 0.9953
DV90_LUNG
  AUC: 0.6429
DepMap TP53 mutation annotation
  ∆ (AUC, TP53 mutation vs WT; decreased sensitivity): 0.0512
EBC1_LUNG
  AUC: 0.8513
ECGI10_OESOPHAGUS
  AUC: 1.105
EFM192A_BREAST
  AUC: 1.042
EFO21_OVARY
  AUC: 0.9443
EFO27_OVARY
  AUC: 0.9949
EN_ENDOMETRIUM
  AUC: 1.056
ES2_OVARY
  AUC: 1.069
ESS1_ENDOMETRIUM
  AUC: 0.9952
EWS502_BONE
  AUC: 1.4146
FADU_UPPER_AERODIGESTIVE_TRACT
  AUC: 1.156
FTC133_THYROID
  AUC: 0.8526
FTC238_THYROID
  AUC: 0.8658
G292CLONEA141B1_BONE
  AUC: 1.276
G361_SKIN
  AUC: 1.1047
G401_SOFT_TISSUE
  AUC: 0.6407
G402_SOFT_TISSUE
  AUC: 0.5799
GAMG_CENTRAL_NERVOUS_SYSTEM
  AUC: 1.102
GB1_CENTRAL_NERVOUS_SYSTEM
  AUC: 1.09
GCIY_STOMACH
  AUC: 1.0232
GCT_SOFT_TISSUE
  AUC: 1.012
GI1_CENTRAL_NERVOUS_SYSTEM
  AUC: 1.111
GMS10_CENTRAL_NERVOUS_SYSTEM
  AUC: 1.007
GOS3_CENTRAL_NERVOUS_SYSTEM
  AUC: 0.7415
GP2D_LARGE_INTESTINE
  AUC: 1.073
H4_CENTRAL_NERVOUS_SYSTEM
  AUC: 0.8128
HARA_LUNG
  AUC: 1.29
HCC15_LUNG
  AUC: 0.9559
HCC38_BREAST
  AUC: 1.2075
HCC44_LUNG
  AUC: 0.9515
HCC56_LARGE_INTESTINE
  AUC: 1.407
HCC78_LUNG
  AUC: 1.024
HCC95_LUNG
  AUC: 0.9165
HCC366_LUNG
  AUC: 0.9914
HCC827_LUNG
  AUC: 0.8612
HCC1143_BREAST
  AUC: 1.083
HCC1195_LUNG
  AUC: 0.8483
HCC1359_LUNG
  AUC: 1.123
HCC1419_BREAST
  AUC: 1.047
HCC1428_BREAST
  AUC: 0.8065
